According to patent US20250320184A1 (SIRONAX LTD., priority 2022, published 2025):
pIC50: −log10 of the molar value.

molecular target: T1, SARM1 (50-724) (Homo sapiens, UniProt Q6SZW1); test: biochemical; details: not given
T1 sequence (Q6SZW1 50-724): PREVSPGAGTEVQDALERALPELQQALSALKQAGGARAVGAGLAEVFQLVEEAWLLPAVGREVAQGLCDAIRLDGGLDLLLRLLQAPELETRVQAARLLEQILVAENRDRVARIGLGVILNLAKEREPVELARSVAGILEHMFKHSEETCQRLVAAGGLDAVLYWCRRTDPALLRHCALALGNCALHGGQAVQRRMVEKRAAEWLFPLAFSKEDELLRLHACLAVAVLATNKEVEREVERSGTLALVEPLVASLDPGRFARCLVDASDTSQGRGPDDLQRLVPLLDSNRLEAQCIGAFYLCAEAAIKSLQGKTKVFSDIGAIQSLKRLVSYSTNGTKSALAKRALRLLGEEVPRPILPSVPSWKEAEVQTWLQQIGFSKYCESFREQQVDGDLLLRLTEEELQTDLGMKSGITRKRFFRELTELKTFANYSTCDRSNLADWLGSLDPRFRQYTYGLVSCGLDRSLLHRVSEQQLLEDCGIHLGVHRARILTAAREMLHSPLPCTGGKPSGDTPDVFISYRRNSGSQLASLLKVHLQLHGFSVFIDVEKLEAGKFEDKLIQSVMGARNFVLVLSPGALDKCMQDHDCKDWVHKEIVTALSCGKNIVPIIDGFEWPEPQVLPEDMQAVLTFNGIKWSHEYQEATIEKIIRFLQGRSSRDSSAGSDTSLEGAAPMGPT

pIC50 | SMILES
6.30 to 7.00 | CC(Nc1ccc2c(c1)NC(=O)OC2)c1cccc(Cl)c1Cl (stereo not drawn) [Example 181, 7-((1-(2,3-dichlorophenyl)ethyl)amino)-1,4-dihydro-2H-benzo[d][1,3]oxazin-2-one]
> 7.00 | CC(Nc1ccc2cn[nH]c(=O)c2c1)c1c(Cl)ccc(F)c1Cl (stereo not drawn) [Example 199]
6.30 to 7.00 | O=c1[nH]ccc2ccc(OC(CO)c3cccc(Cl)c3Cl)cc12 (stereo not drawn) [Example 228, 7-(1-(2,3-dichlorophenyl)-2-hydroxyethoxy)isoquinolin-1(2H)-one]
> 7.00 | CC1(C)C(=O)N(CC(=O)N2CCCCC2)c2cc(NS(=O)(=O)c3cccc(Cl)c3Cl)ccc21 [Example 286, 2,3-dichloro-N-(3,3-dimethyl-2-oxo-1-(2-oxo-2-(piperidin-1-yl)ethyl)indolin-6-yl)benzenesulfonamide]
> 7.00 | CC1(C)C(=O)N(CC(=O)NCCO)c2cc(NS(=O)(=O)c3cccc(Cl)c3Cl)ccc21 [Example 287, 2-(6-((2,3-dichlorophenyl)sulfonamido)-3,3-dimethyl-2-oxoindolin-1-yl)-N-(2-hydroxyethyl)acetamide]
> 7.00 | CC1(C)C(=O)N(CC(=O)N2CCOCC2)c2cc(NS(=O)(=O)c3cccc(Cl)c3Cl)ccc21 [Example 291, 2,3-dichloro-N-(3,3-dimethyl-1-(2-morpholino-2-oxoethyl)-2-oxoindolin-6-yl)benzenesulfonamide]
> 7.00 | Cc1c2ccc(NC(C)(C)c3nc(Cl)c(Cl)s3)cc2nn1CC(N)=O [Example 360, 2-(6-((2-(4,5-dichlorothiazol-2-yl)propan-2-yl)amino)-3-methyl-2H-indazol-2-yl)acetamide]

molecular target: T1, SARM1 (50-724); test: SARM1 (50-724) enzymatic assay; details: SARM1 inhibitory activity; purified SARM1 (50-724) 2 nM, 200 μM NMN activator, 100 μM NAD+ substrate, LC-MS/MS
Method: An enzymatic assay was performed in a 384-well plate using Dulbecco's phosphate-buffered saline (PBS) as the reaction buffer. […] The reaction was initiated by adding a mixture of 200 μM nicotinamide mononucleotide (NMN) as activator and 100 μM NAD^+ as substrate. After 1 h of incubation at room temperature, the reaction was terminated with 10 times volume of 70% acetonitrile, then centrifuged at 3800 rpm for 10 min.

pIC50 | SMILES
> 7.00 | CC(Nc1ccc2cc[nH]c(=O)c2c1)c1nccc(Cl)c1Cl (racemic) [Example 194, 7-((1-(3,4-dichloropyridin-2-yl)ethyl)amino)isoquinolin-1(2H)-one]
> 7.00 | CC(Nc1ccc2c(c1)C(=O)NCC2)c1cccc(Cl)c1Cl (single isomer, unassigned) [Example 112]
